In US9896441B2 (Lycera Corporation, priority 2014, dated 2018):

How the values were obtained:
RORγ-LBD = target: T1, RORγ-LBD (Homo sapiens, UniProt P51449); experiment: RORγ-Ligand Binding Domain (LBD) TR-FRET Assay; assay type: biochemical; details: for TR-FRET Assay Max Response: maximum response;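 for TR-FRET Assay Max Response: 665/615 nm signal ratio set to 100 without ursolic acid or test compound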
T1 construct: made in house; host or cells: SF9 cells (baculovirus); used as diluted lysate
T1 sequence (P51449 269-508 limits assumed): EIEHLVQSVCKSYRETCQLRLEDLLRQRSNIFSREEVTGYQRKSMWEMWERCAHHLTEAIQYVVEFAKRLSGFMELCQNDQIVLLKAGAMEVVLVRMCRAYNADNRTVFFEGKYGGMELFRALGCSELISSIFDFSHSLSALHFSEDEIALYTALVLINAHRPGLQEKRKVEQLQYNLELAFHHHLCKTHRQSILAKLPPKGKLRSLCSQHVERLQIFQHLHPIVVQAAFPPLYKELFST
Procedure, shortened: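 His-tagged RORγ-LBD from SF9 baculovirus lysate, ~3 nM final, in 50 mM Tris pH 7.0, 50 mM KCl, 1 mM EDTA, 0.1 mM DTT, 0.01% BSA. Biotinylated SRC1 LXXLL peptide at 200 nM final with 2 μM ursolic acid; TR-FRET read-out, 1% DMSO final.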

Gal4-RORγ-LBD = target: T2, Gal4-RORγ-LBD (Homo sapiens, UniProt P51449); experiment: Gal4-RORγ Luciferase Reporter Assay in HEK-293T Cells; assay type: cell-based; details: HEK-293 cells; for Gal4-RORγ Assay Max Response: maximum response
T2 construct: expressed in transfected cells
T2 sequence (P51449 269-508 limits assumed): T1 sequence (P51449 269-508 limits assumed)
Procedure, shortened: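 HEK-293 cells were co-transfected with Gal4-RORγ-LBD and a Gal4-luciferase reporter, then exposed overnight at 37 °C to compounds with […] ursolic acid present (0.2% DMSO). Luminescence was read with One-Glo after 10 min at RT, untreated signal was set as 100, and Max Response was taken as the upper plateau of a 4-parameter logistic fit.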

[1] = luciferase reporter, in presence of ursolic acid
[2] = luciferase reporter, with ursolic acid
[3] = with 2 μM ursolic acid (RORγ antagonist), highest test concentration 10 μM
[4] = ursolic acid present, luciferase readout

| Structure (SMILES) | EC50 (RORγ-LBD; RORγ-LBD TR-FRET assay) | EC50 (Gal4-RORγ-LBD; [1]) | EC50 (RORγ-LBD; RORγ-LBD TR-FRET) | EC50 (Gal4-RORγ-LBD; [2]) | also measured |
| --- | --- | --- | --- | --- | --- |
| C/C(=C\c1ccc2c(c1)N(S(=O)(=O)c1cccc(C(F)(F)F)c1)C[C@H](CCNC(=O)C(C)(C)O)O2)c1c(F)cccc1Cl [Example 115, (S,E)-N-(2-(6-(2-(2-Chloro-6-fluorophenyl)prop-1-en-1-yl)-4-((3-(trifluoromethyl)phenyl)sulfonyl)-3,4-dihydro-2H-benzo[b][1,4]oxazin-2-yl)ethyl)-2-hydroxy-2-methylpropanamide] | < 0.5 µM | < 0.5 µM |  |  | TR-FRET Assay Max Response (RORγ-LBD; RORγ-LBD TR-FRET assay): *** (a value in the range of greater than 150 to 200); Gal4-RORγ Assay Max Response (Gal4-RORγ-LBD; [1]): * (a value in the range of 30 to 90) |
| C/C(=C\c1ccc2c(c1C)N(S(=O)(=O)c1cccc(C(F)(F)F)c1)C[C@H](CCC(=O)O)O2)c1c(F)cccc1Cl [Example 58, (S,E)-3-(6-(2-(2-Chloro-6-fluorophenyl)prop-1-en-1-yl)-5-methyl-4-((3-(trifluoromethyl)phenyl)sulfonyl)-3,4-dihydro-2H-benzo[b][1,4]oxazin-2-yl)propanoic acid] |  |  | < 0.5 µM | 0.5 to 5 µM |  |
| CCn1cc(S(=O)(=O)N2C[C@H]([C@@H](C)NC(C)=O)Oc3ccc(/C=C(\C)c4c(F)cccc4Cl)cc32)c(Cl)n1 [Example 102, N—((R)-1-((R)-4-((3-Chloro-1-ethyl-1H-pyrazol-4-yl)sulfonyl)-6-((E)-2-(2-chloro-6-fluorophenyl)prop-1-en-1-yl)-3,4-dihydro-2H-benzo[b][1,4]oxazin-2-yl)ethyl)acetamide] |  |  | < 0.5 µM | < 0.5 µM |  |
| C/C(=C\c1ccc2c(c1)N(S(=O)(=O)c1cccc(C(F)(F)F)c1)C[C@H](CCC(C)(C)O)O2)c1c(F)cccc1Cl [Example 121B, (S,E)-4-(6-(2-(2-chloro-6-fluorophenyl)prop-1-en-1-yl)-4-((3-(trifluoromethyl)-phenyl)sulfonyl)-3,4-dihydro-2H-benzo[b][1,4]oxazin-2-yl)-2-methylbutan-2-ol] | < 0.5 µM | < 0.5 µM |  |  | TR-FRET Assay Max Response (RORγ-LBD; RORγ-LBD TR-FRET assay): ** (a value in the range of greater than 90 to 150); Gal4-RORγ Assay Max Response (Gal4-RORγ-LBD; [1]): ** (a value in the range of greater than 90 to 150) |
| C/C(=C\c1ccc2c(c1)N(S(=O)(=O)c1cccc(C(F)(F)F)c1)C[C@H](CCNC(=O)OC(C)(C)C)O2)c1c(F)cccc1Cl [Example 110, tert-Butyl (S,E)-(2-(6-(2-(2-chloro-6-fluorophenyl)prop-1-en-1-yl)-4-((3-(trifluoromethyl)phenyl)sulfonyl)-3,4-dihydro-2H-benzo[b][1,4]oxazin-2-yl)ethyl)carbamate] | < 0.5 µM | 0.5 to 5 µM |  |  | TR-FRET Assay Max Response (RORγ-LBD; RORγ-LBD TR-FRET assay): *** (a value in the range of greater than 150 to 200); Gal4-RORγ Assay Max Response (Gal4-RORγ-LBD; [1]): ** (a value in the range of greater than 90 to 150) |
| COC(=O)CC[C@H]1CN(S(=O)(=O)c2cccc(OC(F)F)c2)c2cc(/C=C/c3ccccc3C#N)ccc2O1 [Example 89AR, (S,E)-methyl 3-(6-(2-cyanostyryl)-4-((3-(difluoromethoxy)phenyl)sulfonyl)-3,4-dihydro-2H-benzo[b][1,4]-oxazin-2-yl)propanoate] |  |  | < 0.5 µM | 0.5 to 5 µM |  |
| O=C(O)CC[C@H]1CN(S(=O)(=O)c2cccc(OC(F)F)c2)c2cc(/C=C/c3ncccc3Cl)ccc2O1 [Example 89DT, (S,E)-3-(6-(2-(3-chloropyridin-2-yl)vinyl)-4-((3-(difluoromethoxy)phenyl)sulfonyl)-3,4-dihydro-2H-benzo[b][1,4]-oxazin-2-yl)propanoic acid] |  |  | < 0.5 µM | 0.5 to 5 µM |  |
| O=S(=O)(c1cccc(C(F)(F)F)c1)N1C[C@H](CO)Oc2ccc(Oc3ccccc3Cl)cc21 [Example 131, (R)-(6-(2-Chlorophenoxy)-4-((3-(trifluoromethyl)phenyl)sulfonyl)-3,4-dihydro-2H-benzo[b][1,4]oxazin-2-yl)methanol] | < 0.5 µM | < 0.5 µM |  |  | TR-FRET Assay Max Response (RORγ-LBD; RORγ-LBD TR-FRET assay): *** (a value in the range of greater than 150 to 200); Gal4-RORγ Assay Max Response (Gal4-RORγ-LBD; [1]): ** (a value in the range of greater than 90 to 150) |
| C/C(=C\c1ccc2c(c1)N(S(=O)(=O)c1cccc(C(F)(F)F)c1)C[C@H]([C@@H](C)N)O2)c1c(F)cccc1Cl [Example 100, (R)-1-((R)-6-((E)-2-(2-Chloro-6-fluorophenyl)prop-1-en-1-yl)-4-((3-(trifluoromethyl)phenyl)sulfonyl)-3,4-dihydro-2H-benzo[b][1,4]oxazin-2-yl)ethan-1-amine] |  |  | < 0.5 µM | 0.5 to 5 µM |  |
| C/C(=C\c1ccc2c(c1)N(S(=O)(=O)c1cccc(C(F)(F)F)c1)C[C@H]([C@H](C)O)O2)c1c(F)cccc1Cl [Example 96, (S)-1-((R)-6-((E)-2-(2-Chloro-6-fluorophenyl)prop-1-en-1-yl)-4-((3-(trifluoromethyl)phenyl)sulfonyl)-3,4-dihydro-2H-benzo[b][1,4]oxazin-2-yl)ethan-1-ol] |  |  | < 0.5 µM | < 0.5 µM |  |
| O=C(O)CC[C@H]1CN(S(=O)(=O)c2cccc(C(F)(F)F)c2)c2cc(/C=C/c3cccnc3C(F)(F)F)ccc2O1 [Example 89CK, (S,E)-3-(4-((3-(trifluoromethyl)-phenyl)sulfonyl)-6-(2-(2-(trifluoromethyl)pyridin-3-yl)vinyl)-3,4-dihydro-2H-benzo[b][1,4]oxazin-2-yl)propanoic acid] |  |  | < 0.5 µM | 0.5 to 5 µM |  |
| N#Cc1cccc(/C=C/c2ccc3c(c2)N(S(=O)(=O)c2cccc(C(F)(F)F)c2)C[C@H](CCC(=O)O)O3)c1F [Example 89BW, (S,E)-3-(6-(3-cyano-2-fluorostyryl)-4-((3-(trifluoromethyl)phenyl)sulfonyl)-3,4-dihydro-2H-benzo[b][1,4]oxazin-2-yl)propanoic acid] |  |  | < 0.5 µM | > 10 µM |  |
| COc1cc(S(=O)(=O)N2CCCc3ccc(OCc4c(Cl)cccc4Cl)cc32)ccc1F [Example 25P, 7-((2,6-dichlorobenzyl)oxy)-1-((4-fluoro-3-methoxyphenyl)sulfonyl)-1,2,3,4-tetrahydroquinoline] |  |  | < 0.5 µM | < 0.5 µM |  |
| COC(=O)CC[C@H]1CN(S(=O)(=O)c2cccc(OC(F)F)c2)c2cc(/C=C/c3ncccn3)ccc2O1 [Example 89H, (S,E)-methyl 3-(4-((3-(difluoromethoxy)-phenyl)sulfonyl)-6-(2-(pyrimidin-2-yl)vinyl)-3,4-dihydro-2H-benzo[b][1,4]oxazin-2-yl)propanoate] |  |  | < 0.5 µM | > 10 µM |  |
| C/C(=C\c1ccc2c(c1)N(S(=O)(=O)c1cccc(C(F)(F)F)c1)C[C@H](CNC(=O)N1CCC(C(=O)O)CC1)O2)c1c(F)cccc1Cl [Example 116O, (S,E)-1-(((6-(2-(2-chloro-6-fluorophenyl)prop-1-en-1-yl)-4-((3-(trifluoromethyl)phenyl)sulfonyl)-3,4-dihydro-2H-benzo[b][1,4]oxazin-2-yl)methyl)carbamoyl)piperidine-4-carboxyic acid] |  |  |  |  | EC50 (RORγ-LBD; [3]): < 0.5 µM; EC50 (Gal4-RORγ-LBD; [4]): < 0.5 µM |
| CC(=O)N[C@@H]1Cc2ccc(OCc3c(F)cccc3Cl)cc2N(S(=O)(=O)c2cccc(C(F)(F)F)c2)C1 [Example 160, (R)—N-(7-((2-chloro-6-fluorobenzyl)oxy)-1-((3-(trifluoromethyl)phenyl)sulfonyl)-1,2,3,4-tetrahydroquinolin-3-yl)acetamide] | < 0.5 µM | < 0.5 µM |  |  |  |
| CCC(=Cc1ccc2c(c1)N(S(=O)(=O)c1cccc(C(F)(F)F)c1)C[C@H](CCCC(=O)O)O2)CC [Example 195F, (S)-4-(6-(2-ethylbut-1-en-1-yl)-4-((3-(trifluoromethyl)phenyl)-sulfonyl)-3,4-dihydro-2H-benzo[b][1,4]oxazin-2-yl)butanoic acid] |  |  |  |  | EC50 (RORγ-LBD; [3]): < 0.5 µM; EC50 (Gal4-RORγ-LBD; [4]): < 0.5 µM |
| CC(=O)N[C@H]1Cc2ccc(/C=C(\C)c3c(F)cccc3Cl)cc2N(S(=O)(=O)c2cccc(C(F)(F)F)c2)C1 [Example 167, (S,E)-N-(7-(2-(2-chloro-6-fluorophenyl)prop-1-en-1-yl)-1-((3-(trifluoromethyl)phenyl)sulfonyl)-1,2,3,4-tetrahydroquinolin-3-yl)acetamide] | < 0.5 µM | 0.5 to 5 µM |  |  | TR-FRET Assay Max Response (RORγ-LBD; RORγ-LBD TR-FRET assay): *** (a value in the range of greater than 150 to 200); Gal4-RORγ Assay Max Response (Gal4-RORγ-LBD; [1]): ** (a value in the range of greater than 90 to 150) |
| CCOc1ncc(C(F)(F)F)cc1S(=O)(=O)N1C[C@H](CCC(=O)O)Oc2ccc(/C=C/c3c(Cl)cccc3C(C)(F)F)cc21 [Example 89FG, (S,E)-3-(6-(2-chloro-6-(1,1-difluoroethyl)styryl)-4-((2-ethoxy-5-(trifluoromethyl)-pyridin-3-yl)sulfonyl)-3,4-dihydro-2H-benzo[b][1,4]-oxazin-2-yl)propanoic acid] |  |  | < 0.5 µM | < 0.5 µM |  |
| COC(=O)CC[C@H]1CN(S(=O)(=O)c2cccc(OC(F)F)c2)c2cc(/C=C/c3ccc(C)cc3)ccc2O1 [Example 89BF, (S,E)-methyl 3-(4-((3-(difluoromethoxy)phenyl)sulfonyl)-6-(4-methylstyryl)-3,4-dihydro-2H-benzo[b][1,4]oxazin-2-yl)propanoate] |  |  | 0.5 to 5 µM | > 10 µM |  |
